The numbers were not newly measured in PubChem BioAssay AID1259409 (Chemical Carcinogenesis Research Information System (CCRIS), 2018), which cites them from elsewhere.

The series relates to rodent chemically induced tumor inhibition, incidence and multiplicity. Briefly: CCRIS tumor inhibitor studies. Particulars: Species: RAT.

SMILES strings stand for the structures. Several values for one entry are separate records, joined by “and”; a condition that tells them apart may be missing. Identical values can stand only once.

As for `COc1ccc2c(c1)c(CC(=O)O)c(C)n2C(=O)c1ccc(Cl)cc1`, the “tumour outcome (control, treated, inhibition, significance)” value reads like this: (Carcinogen: DIETHYLNITROSAMINE, 55-18-5, N-METHYL-N-NITROSOUREA, 684-93-5, N-BUTYL-N-(4-HYDROXYBUTYL)NITROSAMINE, 3817-11-6, 1,2-DIM, Carcinogen: DIETHYLNITROSAMINE, 55-18-5, N-METHYL-N-NITROSOUREA, 684-93-5, N-BUTYL-N-(4-HYDROXYBUTYL)NITROSAMINE, 3817-11-6, 1,2-DIM, Dose [Inhibitor]: 0, 20 PPM IN DRINKING WATER FOR 23 WK BEGINNING 1 WK POST CARCINOGEN TREATMENT (STUDY DURATION: 28 WK), Route [Inhibitor]: ORAL, Strain/Sex: F344/MALE, Target Tissue: Type of Lesion: LARGE INTESTINE: ADENOCARCINOMA, Dose [Carcinogen]: 100 MG/KG BW DEN ONCE, 20 MG/KG BW MNU ONCE ON DAYS 6,9, AND 12, 0.05% BBN IN DRINKING WATER FOR FIRST TWO WK, 40 MG/KG, Dose [Carcinogen]: 100 MG/KG BW DEN ONCE, 20 MG/KG BW MNU ONCE ON DAYS 6,9, AND 12, 0.05% BBN IN DRINKING WATER FOR FIRST TWO WK, 40 MG/KG, Promoter: NONE USED) 2/20 (10%), 0/19 (0%), 100%, not significant; (Carcinogen: DIETHYLNITROSAMINE, 55-18-5, N-METHYL-N-NITROSOUREA, 684-93-5, N-BUTYL-N-(4-HYDROXYBUTYL)NITROSAMINE, 3817-11-6, 1,2-DIM, Carcinogen: DIETHYLNITROSAMINE, 55-18-5, N-METHYL-N-NITROSOUREA, 684-93-5, N-BUTYL-N-(4-HYDROXYBUTYL)NITROSAMINE, 3817-11-6, 1,2-DIM, Dose [Inhibitor]: 0, 20 PPM IN DRINKING WATER FOR 23 WK BEGINNING 1 WK POST CARCINOGEN TREATMENT (STUDY DURATION: 28 WK), Route [Inhibitor]: ORAL, Strain/Sex: F344/MALE, Target Tissue: Type of Lesion: LARGE INTESTINE: ADENOMA, Dose [Carcinogen]: 100 MG/KG BW DEN ONCE, 20 MG/KG BW MNU ONCE ON DAYS 6,9, AND 12, 0.05% BBN IN DRINKING WATER FOR FIRST TWO WK, 40 MG/KG, Dose [Carcinogen]: 100 MG/KG BW DEN ONCE, 20 MG/KG BW MNU ONCE ON DAYS 6,9, AND 12, 0.05% BBN IN DRINKING WATER FOR FIRST TWO WK, 40 MG/KG, Promoter: NONE USED) 3/20 (15%), 0/19 (0%), 100%, not significant; (Carcinogen: DIETHYLNITROSAMINE, 55-18-5, N-METHYL-N-NITROSOUREA, 684-93-5, N-BUTYL-N-(4-HYDROXYBUTYL)NITROSAMINE, 3817-11-6, 1,2-DIM, Carcinogen: DIETHYLNITROSAMINE, 55-18-5, N-METHYL-N-NITROSOUREA, 684-93-5, N-BUTYL-N-(4-HYDROXYBUTYL)NITROSAMINE, 3817-11-6, 1,2-DIM, Dose [Inhibitor]: 0, 20 PPM IN DRINKING WATER FOR 23 WK BEGINNING 1 WK POST CARCINOGEN TREATMENT (STUDY DURATION: 28 WK), Route [Inhibitor]: ORAL, Strain/Sex: F344/MALE, Target Tissue: Type of Lesion: LIVER: HEPATOCELLULAR ADENOMA, HYPERPLASTIC NODULE, Dose [Carcinogen]: 100 MG/KG BW DEN ONCE, 20 MG/KG BW MNU ONCE ON DAYS 6,9, AND 12, 0.05% BBN IN DRINKING WATER FOR FIRST TWO WK, 40 MG/KG, Dose [Carcinogen]: 100 MG/KG BW DEN ONCE, 20 MG/KG BW MNU ONCE ON DAYS 6,9, AND 12, 0.05% BBN IN DRINKING WATER FOR FIRST TWO WK, 40 MG/KG, Promoter: NONE USED) 2/20 (10%), 7/19 (37%), -270%, not significant; (Carcinogen: DIETHYLNITROSAMINE, 55-18-5, N-METHYL-N-NITROSOUREA, 684-93-5, N-BUTYL-N-(4-HYDROXYBUTYL)NITROSAMINE, 3817-11-6, 1,2-DIM, Carcinogen: DIETHYLNITROSAMINE, 55-18-5, N-METHYL-N-NITROSOUREA, 684-93-5, N-BUTYL-N-(4-HYDROXYBUTYL)NITROSAMINE, 3817-11-6, 1,2-DIM, Dose [Inhibitor]: 0, 20 PPM IN DRINKING WATER FOR 23 WK BEGINNING 1 WK POST CARCINOGEN TREATMENT (STUDY DURATION: 28 WK), Route [Inhibitor]: ORAL, Strain/Sex: F344/MALE, Target Tissue: Type of Lesion: LUNG: ADENOCARCINOMA, Dose [Carcinogen]: 100 MG/KG BW DEN ONCE, 20 MG/KG BW MNU ONCE ON DAYS 6,9, AND 12, 0.05% BBN IN DRINKING WATER FOR FIRST TWO WK, 40 MG/KG, Dose [Carcinogen]: 100 MG/KG BW DEN ONCE, 20 MG/KG BW MNU ONCE ON DAYS 6,9, AND 12, 0.05% BBN IN DRINKING WATER FOR FIRST TWO WK, 40 MG/KG, Promoter: NONE UESD) 1/20 (5%), 0/19 (0%), 100%, not significant; (Carcinogen: DIETHYLNITROSAMINE, 55-18-5, N-METHYL-N-NITROSOUREA, 684-93-5, N-BUTYL-N-(4-HYDROXYBUTYL)NITROSAMINE, 3817-11-6, 1,2-DIM, Carcinogen: DIETHYLNITROSAMINE, 55-18-5, N-METHYL-N-NITROSOUREA, 684-93-5, N-BUTYL-N-(4-HYDROXYBUTYL)NITROSAMINE, 3817-11-6, 1,2-DIM, Dose [Inhibitor]: 0, 20 PPM IN DRINKING WATER FOR 23 WK BEGINNING 1 WK POST CARCINOGEN TREATMENT (STUDY DURATION: 28 WK), Route [Inhibitor]: ORAL, Strain/Sex: F344/MALE, Target Tissue: Type of Lesion: LUNG: ADENOMA, Dose [Carcinogen]: 100 MG/KG BW DEN ONCE, 20 MG/KG BW MNU ONCE ON DAYS 6,9, AND 12, 0.05% BBN IN DRINKING WATER FOR FIRST TWO WK, 40 MG/KG, Dose [Carcinogen]: 100 MG/KG BW DEN ONCE, 20 MG/KG BW MNU ONCE ON DAYS 6,9, AND 12, 0.05% BBN IN DRINKING WATER FOR FIRST TWO WK, 40 MG/KG, Promoter: NONE USED) 8/20 (40%), 2/19 (11%), 73%, p<0.05; (Carcinogen: DIETHYLNITROSAMINE, 55-18-5, N-METHYL-N-NITROSOUREA, 684-93-5, N-BUTYL-N-(4-HYDROXYBUTYL)NITROSAMINE, 3817-11-6, 1,2-DIM, Carcinogen: DIETHYLNITROSAMINE, 55-18-5, N-METHYL-N-NITROSOUREA, 684-93-5, N-BUTYL-N-(4-HYDROXYBUTYL)NITROSAMINE, 3817-11-6, 1,2-DIM, Dose [Inhibitor]: 0, 20 PPM IN DRINKING WATER FOR 23 WK BEGINNING 1 WK POST CARCINOGEN TREATMENT (STUDY DURATION: 28 WK), Route [Inhibitor]: ORAL, Strain/Sex: F344/MALE, Target Tissue: Type of Lesion: THYROID: FOLLICULAR ADENOMA, Dose [Carcinogen]: 100 MG/KG BW DEN ONCE, 20 MG/KG BW MNU ONCE ON DAYS 6,9, AND 12, 0.05% BBN IN DRINKING WATER FOR FIRST TWO WK, 40 MG/KG, Dose [Carcinogen]: 100 MG/KG BW DEN ONCE, 20 MG/KG BW MNU ONCE ON DAYS 6,9, AND 12, 0.05% BBN IN DRINKING WATER FOR FIRST TWO WK, 40 MG/KG, Promoter: NONE USED) 6/20 (30%), 2/19 (11%), 63%, not significant and 1/20 (5%), 1/19 (5%), 0%, not significant. The “tumour outcome (control, treated, inhibition, significance)” value reads like this: (Carcinogen: DIETHYLNITROSAMINE, 55-18-5, N-METHYL-N-NITROSOUREA;684-93-5, N-BUTYL-N-(4-HYDROXYBUTYL)NITROSAMINE, 3817-11-6, 1,2-DIME, Carcinogen: DIETHYLNITROSAMINE, 55-18-5, N-METHYL-N-NITROSOUREA;684-93-5, N-BUTYL-N-(4-HYDROXYBUTYL)NITROSAMINE, 3817-11-6, 1,2-DIME, Dose [Inhibitor]: 0, 20 PPM IN DRINKING WATER FOR 23 WK BEGINNING 1 WK POST CARCINOGEN TREATMENT (STUDY DURATION: 28 WK), Route [Inhibitor]: ORAL, Strain/Sex: F344/MALE, Target Tissue: Type of Lesion: SMALL INTESTINE: ADENOMA, Dose [Carcinogen]: 100 MG/KG BW DEN ONCE, 20 MG/KG BW MNU ONCE ON DAYS 6,9, AND 12, 0.05% BBN IN DRINKING WATER FOR FIRST TWO WK, 40 MG/KG, Dose [Carcinogen]: 100 MG/KG BW DEN ONCE, 20 MG/KG BW MNU ONCE ON DAYS 6,9, AND 12, 0.05% BBN IN DRINKING WATER FOR FIRST TWO WK, 40 MG/KG, Promoter: NONE USED) 5/20 (25%), 0/19 (0%), 100%, p<0.05; (Carcinogen: DIETHYLNITROSAMINE, 55-18-5, N-METHYL-N-NITROSOUREA, 684-93-5, N-METHYL-N-(4-HYDROXYBUTYL)NITROSAMINE, 3817-11-6, 1,2-DI, Carcinogen: DIETHYLNITROSAMINE, 55-18-5, N-METHYL-N-NITROSOUREA, 684-93-5, N-METHYL-N-(4-HYDROXYBUTYL)NITROSAMINE, 3817-11-6, 1,2-DI, Dose [Inhibitor]: 0, 20 PPM IN DRINKING WATER FOR 23 WK BEGINNING 1 WK POST CARCINOGEN TREATMENT (STUDY DURATION: 28 WK), Route [Inhibitor]: ORAL, Strain/Sex: F344/MALE, Target Tissue: Type of Lesion: SMALL INTESTINE: ADENOCARCINOMA, Dose [Carcinogen]: 100 MG/KG BW DEN ONCE, 20 MG/KG BW MNU ONCE ON DAYS 6,9, AND 12, 0.05% BBN IN DRINKING WATER FOR FIRST TWO WK, 40 MG/KG, Dose [Carcinogen]: 100 MG/KG BW DEN ONCE, 20 MG/KG BW MNU ONCE ON DAYS 6,9, AND 12, 0.05% BBN IN DRINKING WATER FOR FIRST TWO WK, 40 MG/KG, Promoter: NONE USED) 2/20 (10%), 0/19 (0%), 100%, not significant; (Carcinogen: METHYLAZOXYMETHANOL, 590-96-5, Dose [Inhibitor]: 7.5 MG/KG BW DAILY FOR 3 WK STARTING 27 WK AFTER THE START OF CARCINOGEN TREATMENT (STUDY DURATION: 30 WK), Route [Inhibitor]: INTRARECTAL, Strain/Sex: DONRYU/MALE, Target Tissue: Type of Lesion: LARGE INTESTINE: ADENOCARCINOMA, Dose [Carcinogen]: 20 MG/KG BW 1/WK FOR 6 WK, Promoter: NONE USED) 19/23 (83%), 15/30 (50%), 40%, p<0.05. The outcome (Carcinogen: DIETHYLNITROSAMINE, 55-18-5, N-METHYL-N-NITROSOUREA, 684-93-5, N-BUTYL-N-(4-HYDROXYBUTYL)NITROSAMINE, 3817-11-6, 1,2-DIM, Carcinogen: DIETHYLNITROSAMINE, 55-18-5, N-METHYL-N-NITROSOUREA, 684-93-5, N-BUTYL-N-(4-HYDROXYBUTYL)NITROSAMINE, 3817-11-6, 1,2-DIM, Dose [Inhibitor]: 0, 20 PPM IN DRINKING WATER FOR 23 WK BEGINNING 1 WK POST CARCINOGEN TREATMENT (STUDY DURATION: 28 WK), Route [Inhibitor]: ORAL, Strain/Sex: F344/MALE, Target Tissue: Type of Lesion: LIVER: HEPATOCELLULAR ADENOMA, Dose [Carcinogen]: 100 MG/KG BW DEN ONCE, 20 MG/KG BW MNU ONCE ON DAYS 6,9, AND 12, 0.05% BBN IN DRINKING WATER FOR FIRST TWO WK, 40 MG/KG, Dose [Carcinogen]: 100 MG/KG BW DEN ONCE, 20 MG/KG BW MNU ONCE ON DAYS 6,9, AND 12, 0.05% BBN IN DRINKING WATER FOR FIRST TWO WK, 40 MG/KG, Promoter: NONE) was 0/20 (0%), 0/19 (0%), 0%, not significant.
